≈ marks a conversion by molar mass, not a printed value. Some results are limits rather than exact numbers.

Experimental findings from patent publication US6670363B1, “Azole compounds as therapeutic agents for fungal infections” (Ranbaxy Laboratories Limited, priority 2000, dated 2003) are described below.

In data set [1] the test system is Cryptococcus neoformans. The experiment in a line: In vitro MIC, NCCLS M27A, Cryptococcus neoformans. To be noted: for MIC, C. neoformans I: C. neoformans strain I; for MIC, C. neoformans M 106: C. neoformans strain M 106. Details: MIC, C. neoformans I: unit not given beside the values; MIC, C. neoformans M 106: unit not given here. The class given is cell-based.
Data set [2] relates to Candida. As to the kind of experiment: In vitro MIC, NCCLS M27A, Candida species. The class given is cell-based. Also noted: MIC, Candida albicans 1.549 / MIC, Candida albicans Y-01-19 / MIC, C. krusei 766-1 / MIC, C. krusei Q. C / MIC, Candida tropicalis ATCC / MIC, C. glabrata 90030: unit not given beside the values; MIC, Candida albicans A 26 / MIC, C. parapsilosis Q. C.: unit not given here. To be noted: for MIC, C. glabrata 90030: C. glabrata strain 90030; for MIC, C. krusei 766-1: C. krusei strain 766-1; for MIC, C. krusei Q. C: C. krusei strain Q. C; for MIC, C. parapsilosis Q. C.: C. parapsilosis strain Q. C.; for MIC, Candida albicans 1.549: Candida albicans strain 1.549; for MIC, Candida albicans A 26: Candida albicans strain A 26; for MIC, Candida albicans Y-01-19: Candida albicans strain Y-01-19.

For data set [3], the system named is Histoplasma capsulatum. The class given is cell-based.
Data set [4] has as its system A. fumigatus s 1008. As to the kind of experiment: In vitro MIC, NCCLS M38P broth method (RPMI 1640/MOPS pH7), Aspergillus fumigatus. The class given is cell-based. To be noted: for MIC, A. fumigatus 1008: A. fumigatus strain 1008.

Usually melting point stands for the temperature of the solid-liquid transition. The compound `O=c1n(-c2ccc(N3CCN(c4ccc(Cl)c(Cl)c4)CC3)cc2)cnn1CC(O)(Cn1cncn1)c1ccc(F)cc1F` (stereo not drawn) [Compound 37, 2-[2-(2,4-Difluorophenyl)-2-hydroxy-3-(1H-1,2,4-triazol-1-yl)propyl]-4-{4-[4-(3,4-dichlorophenyl)-1-piperazinyl]phenyl}-3-(2H,4H)-1,2,4-triazolone] showed a melting point of 194 to 196 °C. In data set [1], the “MIC, C. neoformans I” value is reported as less than 0.03 and the “MIC, C. neoformans M 106” value is given as less than 0.03. Further, in data set [2], the “MIC, C. glabrata 90030” value was 0.12; the “MIC, C. krusei 766-1” value was found to be 0.25; the “MIC, C. krusei Q. C” value turned out to be 0.06; the “MIC, C. parapsilosis Q. C.” value was less than 0.03. For the same compound, in data set [2], the “MIC, Candida albicans 1.549” value was determined as 0.06; the “MIC, Candida albicans A 26” value is given as less than 0.03; the “MIC, Candida albicans Y-01-19” value is 0.06; the “MIC, Candida tropicalis ATCC” value is given as less than 0.03. Further, in data set [3], the MIC, H. capsulatum was less than 0.03 µg/mL. The “MIC, A. fumigatus 1008” value in data set [4] is recorded as more than 16.
`Nc1ccc(N2CCN(c3ccc(-n4cnn(CC(O)(Cn5cncn5)c5ccc(F)cc5F)c4=O)cc3)CC2)c(N)c1` (stereo not drawn) [Compound 38, 2-[2-(2,4-Difluorophenyl)-2-hydroxy-3-(1H-1,2,4-triazol-1-yl)propyl]-4-{4-[4-(2,4-diaminophenyl)-1-piperazinyl]phenyl}-3-(2H,4H)-1,2,4-triazolone] had a melting point of 215 to 222 °C. Further, in data set [1], the “MIC, C. neoformans I” value is recorded as more than 16 and the “MIC, C. neoformans M 106” value is more than 16. Besides, in data set [2], the “MIC, C. glabrata 90030” value is given as more than 16; the “MIC, C. krusei 766-1” value is recorded as more than 16; the “MIC, C. krusei Q. C” value is on record as more than 16; the “MIC, C. parapsilosis Q. C.” value was more than 16. Further, in data set [2], the “MIC, Candida albicans 1.549” value was more than 16; the “MIC, Candida albicans A 26” value is more than 16; the “MIC, Candida albicans Y-01-19” value is more than 16; the “MIC, Candida tropicalis ATCC” value is reported as more than 16. Further, in data set [3], the MIC, H. capsulatum is more than 16 µg/mL. Moreover, the “MIC, A. fumigatus 1008” value in data set [4] is recorded as more than 16.
For the compound `Cc1ccc(N2CCN(c3ccc(-n4cnn(CC(O)(Cn5cncn5)c5ccc(F)cc5F)c4=O)cc3)CC2)cc1` (stereo not drawn) [Compound 39, 2-[2-(2,4-Difluorophenyl)-2-hydroxy-3-(1H-1,2,4-triazol-1-yl)propyl]-4-{4-[4-(4-methylphenyl)-1-piperazinyl]phenyl}-3-(2H,4H)-1,2,4-triazolone], the melting point was 146 to 148 °C. Moreover, in data set [1], the “MIC, C. neoformans I” value is reported as less than 0.02 and the “MIC, C. neoformans M 106” value came out at 0.05. Moreover, in data set [2], the “MIC, C. glabrata 90030” value is given as 0.10; the “MIC, C. krusei 766-1” value is 0.80; the “MIC, C. krusei Q. C” value is recorded as 0.10; the “MIC, C. parapsilosis Q. C.” value is less than 0.02. Also, in data set [2], the “MIC, Candida albicans 1.549” value was 0.10; the “MIC, Candida albicans A 26” value is on record as less than 0.02; the “MIC, Candida albicans Y-01-19” value was determined as 0.02; the “MIC, Candida tropicalis ATCC” value was 6.25. In addition, the MIC, H. capsulatum in data set [3] was 0.05 µg/mL (≈ 0.0873 µM). Besides, in data set [4], the “MIC, A. fumigatus 1008” value worked out at 6.25.
`O=c1n(-c2ccc(N3CCN(c4ccc([N+](=O)[O-])cc4[N+](=O)[O-])CC3)cc2)cnn1CC(O)(Cn1cncn1)c1ccc(F)cc1F` (stereo not drawn) [Compound 40, 2-[2-(2,4-Difluorophenyl)-2-hydroxy-3-(1H-1,2,4-triazol-1-yl)propyl]-4-{4-[4-(2,4-dinitrophenyl)-1-piperazinyl]phenyl}-3-(2H,4H)-1,2,4-triazolone]: the melting point was in the range of 120 to 123 °C. In data set [1], the “MIC, C. neoformans I” value came out at 0.05 and the “MIC, C. neoformans M 106” value came to 0.20. Also, in data set [2], the “MIC, C. glabrata 90030” value is reported as 0.80; the “MIC, C. krusei 766-1” value came out at 6.25; the “MIC, C. krusei Q. C” value was found to be 1.56; the “MIC, C. parapsilosis Q. C.” value amounted to 0.05. In data set [2], the “MIC, Candida albicans 1.549” value was found to be 0.40; the “MIC, Candida albicans A 26” value is less than 0.02; the “MIC, Candida albicans Y-01-19” value is reported as 0.40; the “MIC, Candida tropicalis ATCC” value amounted to 1.56. In data set [3], the MIC, H. capsulatum amounted to 0.05 µg/mL (≈ 0.0771 µM). Also, the “MIC, A. fumigatus 1008” value in data set [4] came out at 1.56.
For the compound `COc1ccc(N2CCN(c3ccc(-n4cnn(CC(O)(Cn5cncn5)c5ccc(F)cc5F)c4=O)cc3)CC2)cc1` (stereo not drawn) [Compound 41, 2-[2-(2,4-Difluorophenyl)-2-hydroxy-3-(1H-1,2,4-triazol-1-yl)propyl]-4-{4-[4-(4-methoxyphenyl)-1-piperazinyl]phenyl}-3-(2H,4H)-1,2,4-triazolone], the melting point fell in the range of 183 to 186 °C. Besides, in data set [1], the “MIC, C. neoformans I” value is reported as 0.10 and the “MIC, C. neoformans M 106” value was 0.40. Further, in data set [2], the “MIC, C. glabrata 90030” value amounted to 0.80; the “MIC, C. krusei 766-1” value was determined as 1.56; the “MIC, C. krusei Q. C” value turned out to be 0.40; the “MIC, C. parapsilosis Q. C.” value is given as less than 0.02. Moreover, in data set [2], the “MIC, Candida albicans 1.549” value was 0.05; the “MIC, Candida albicans A 26” value is on record as less than 0.02; the “MIC, Candida albicans Y-01-19” value is listed as 0.10; the “MIC, Candida tropicalis ATCC” value was determined as 3.12. For the same compound, the MIC, H. capsulatum in data set [3] is less than 0.02 µg/mL. For the same compound, the “MIC, A. fumigatus 1008” value in data set [4] was 6.25.
Regarding `COc1ccccc1N1CCN(c2ccc(-n3cnn(CC(O)(Cn4cncn4)c4ccc(F)cc4F)c3=O)cc2)CC1` (stereo not drawn) [Compound 42, 2-[2-(2,4-Difluorophenyl)-2-hydroxy-3-(1H-1,2,4-triazol-1-yl)propyl]-4-{4-[4-(2-methoxyphenyl)-1-piperazinyl]phenyl}-3-(2H,4H)-1,2,4-triazolone], the melting point is 95 to 97 °C. Besides, in data set [1], the “MIC, C. neoformans I” value stood at 0.20 and the “MIC, C. neoformans M 106” value is listed as 0.80. Also, in data set [2], the “MIC, C. glabrata 90030” value was 1.56; the “MIC, C. krusei 766-1” value came out at 3.12; the “MIC, C. krusei Q. C” value is recorded as 1.56; the “MIC, C. parapsilosis Q. C.” value is less than 0.02. Moreover, in data set [2], the “MIC, Candida albicans 1.549” value is listed as 0.40; the “MIC, Candida albicans A 26” value is 0.05; the “MIC, Candida albicans Y-01-19” value was found to be 12.50; the “MIC, Candida tropicalis ATCC” value is 12.50. This compound also gave an MIC, H. capsulatum in data set [3] of 0.05 µg/mL (≈ 0.0849 µM). Besides, in data set [4], the “MIC, A. fumigatus 1008” value is more than 12.5.
For `O=c1n(-c2ccc(N3CCN(c4ccc(F)cc4Cl)CC3)cc2)cnn1CC(O)(Cn1cncn1)c1ccc(F)cc1F` (stereo not drawn) [Compound 58, 2-[2-(2,4-Difluorophenyl)-2-hydroxy-3-(1H-1,2,4-triazol-1-yl)propyl]-4-{4-[4-(2-chloro-4-fluorophenyl)-1-piperazinyl]phenyl}-3-(2H,4H)-1,2,4-triazolone], in data set [1], the “MIC, C. neoformans I” value is reported as less than 0.03 and the “MIC, C. neoformans M 106” value is on record as less than 0.03. Further, in data set [2], the “MIC, C. glabrata 90030” value was 0.25; the “MIC, C. krusei 766-1” value was 1.00; the “MIC, C. krusei Q. C” value is listed as 0.25; the “MIC, C. parapsilosis Q. C.” value is less than 0.03. Besides, in data set [2], the “MIC, Candida albicans 1.549” value is recorded as 0.03; the “MIC, Candida albicans A 26” value was less than 0.03; the “MIC, Candida albicans Y-01-19” value stood at 0.03; the “MIC, Candida tropicalis ATCC” value is less than 0.03. In data set [3], this compound yielded an MIC, H. capsulatum of 0.004 µg/mL (≈ 0.00655 µM). Moreover, the “MIC, A. fumigatus 1008” value in data set [4] is 2.00.
As to `COc1ccc(F)cc1N1CCN(c2ccc(-n3cnn(CC(O)(Cn4cncn4)c4ccc(F)cc4F)c3=O)cc2)CC1` (stereo not drawn) [Compound 59, 2-[2-(2,4-Difluorophenyl)-2-hydroxy-3-(1H-1,2,4-triazol-1-yl)propyl]-4-{4-[4-(2-methoxy-5-fluorophenyl)-1-piperazinyl]phenyl}-3-(2H,4H)-1,2,4-triazolone], in data set [1], the “MIC, C. neoformans I” value is listed as less than 0.03 and the “MIC, C. neoformans M 106” value was 0.12. Further, in data set [2], the “MIC, C. glabrata 90030” value was 1.00; the “MIC, C. krusei 766-1” value stood at 4.00; the “MIC, C. krusei Q. C” value was 1.00; the “MIC, C. parapsilosis Q. C.” value is reported as less than 0.03. Also, in data set [2], the “MIC, Candida albicans 1.549” value was found to be 1.00; the “MIC, Candida albicans A 26” value is on record as less than 0.03; the “MIC, Candida albicans Y-01-19” value amounted to 0.50; the “MIC, Candida tropicalis ATCC” value was less than 0.03. In addition, in data set [3], the MIC, H. capsulatum is less than 0.03 µg/mL. The “MIC, A. fumigatus 1008” value in data set [4] is reported as more than 16.
`COC(=O)Cc1ccc(N2CCN(c3ccc(-n4cnn(CC(O)(Cn5cncn5)c5ccc(F)cc5F)c4=O)cc3)CC2)cc1` (stereo not drawn) [Compound 93, 2-[2-(2,4-Difluorophenyl)-2-hydroxy-3-(1H-1,2,4-triazol-1-yl)propyl]-4-{4-[4-(4-(2-methoxy-2-oxoethyl)phenyl)-1-piperazinyl]phenyl}-3-(2H,4H)-1,2,4-triazolone]: the melting point lay within 66 to 69 °C. Moreover, the “MIC (υg/ml) (A. fumigatus s 1008)” value in data set [4] is more than 12.5 µg/mL.
In the case of `O=C(O)CCc1ccc(N2CCN(c3ccc(-n4cnn(CC(O)(Cn5cncn5)c5ccc(F)cc5F)c4=O)cc3)CC2)cc1` (stereo not drawn) [Compound 94, 2-[2-(2,4-Difluorophenyl)-2-hydroxy-3-(1H-1,2,4-triazol-1-yl)propyl]-4-{4-[4-(4-(carboxyethyl)-phenyl)-1-piperazinyl]phenyl}-3-(2H,4H)-1,2,4-triazolone], the melting point lay in the range of 235 to 239 °C. Also, the “MIC (υg/ml) (A. fumigatus s 1008)” value in data set [4] was more than 12.5 µg/mL.
For `O=c1n(-c2ccc(N3CCN(c4ccc(CCO)cc4)CC3)cc2)cnn1CC(O)(Cn1cncn1)c1ccc(F)cc1F` (stereo not drawn) [Compound 95, 2-[2-(2,4-Difluorophenyl)-2-hydroxy-3-(1H-1,2,4-triazol-1-yl)propyl]-4-{4-[4-(4-(2-hydroxyethyl)phenyl)-1-piperazinyl]phenyl}-3-(2H,4H)-1,2,4-triazolone], the melting point lay in the range of 114 to 115 °C. The “MIC (υg/ml) (A. fumigatus s 1008)” value in data set [4] was more than 12.5 µg/mL.
